Data taken from PMC12469503, “Exploring the Antimicrobial and Antiviral Properties of Cryptic Peptides from Human Fibrinogen” (International Journal of Molecular Sciences, 2025).
≈ marks a conversion by molar mass, not a printed value. Where two headings read alike, the source gives them in different places. Ends that are not written are not given here.

Legend:
[1] = tested on: Staphylococcus aureus ATCC 6538P; assay: microbe, parasite or virus in culture; settings: ATCC6538P
[2] = tested on: Staphylococcus aureus ATCC 6538P; settings: for MIC S. aur.: ATCC 6538
[3] = tested on: Staphylococcus aureus ATCC 6538P; settings: for MBC/MIC: Table 2, Staphylococcus aureus ATCC 6538P; for MBC: ATCC 6538
[4] = tested on: Enterococcus faecalis ATCC 29212
[5] = tested on: Staphylococcus aureus ATCC 6538P; assay: microbe, parasite or virus in culture; settings: ATCC6538P; remark: listed apart in the source
[6] = tested on: Pseudomonas aeruginosa RP73 (clinical isolate)
[7] = tested on: Salmonella typhimurium ATCC 14028; assay: MIC, broth microdilution; assay type: cell-based; settings: Table 1; broth microdilution, Nutrient Broth 0.5×, overnight 37 °C; minimum of three independent experiments
Description: MIC values were determined on Gram-positive and Gram-negative bacteria by the broth microdilution method for antimicrobial peptides previously described [33, 89] with minor modifications.
Bacterial strains were grown in Luria-Bertani (LB) medium overnight at 37 °C and then diluted in Nutrient Broth at a final concentration of ~5 × 10^5 CFU/mL per well. Twofold serial dilutions of peptides were carried out in the test wells to obtain concentrations ranging from 50 μM to 0.05 μM. Plates were incubated overnight at 37 °C.
MIC value was defined as the lowest concentration at which growth was inhibited. Three independent experiments were performed for each MIC value.

[8] = tested on: Pseudomonas aeruginosa PA14
[9] = tested on: Acinetobacter baumanii ATCC 17878
[10] = tested on: Salmonella enteriditis 706 RIVM
[11] = tested on: Klebsiella pneumonia ATCC 700603; settings: ATCC 700603
[12] = tested on: Pseudomonas aeruginosa PAO1; settings: PAO1
[13] = tested on: Escherichia coli ATCC 25922
[14] = tested on: P. aeruginosa PAO1; settings: PAO1, 16 h
Description: Plates were incubated 16 h at 37 °C. FIC index was calculated as follows: FICA + FICB, where FICA = MIC of drug A in combination/MIC of drug A alone, and FICB = MIC of drug B in combination/MIC of drug B alone.

[15] = tested on: P. aeruginosa PAO1 biofilm; assay: Antibiofilm detachment assay, confocal microscopy; settings: peptide 20 µM on 24 h pre-formed biofilm, further 24 h, Live/Dead BacLight, three independent experiments
[16] = tested on: P. aeruginosa PAO1 biofilm; assay: Antibiofilm attachment assay, confocal microscopy; settings: peptide 20 µM added with bacteria, stained after 4 h, Live/Dead BacLight, three independent experiments, t-test vs control
[17] = tested on: HCoV-229E; settings: Vero cells; for antiviral activity against HCoV-229E: co-treatment assay, from 50 μM peptide
[18] = tested on: HSV-1; settings: Vero cells
[19] = tested on: Pseudomonas aeruginosa PAO1; settings: for MBC: PAO1; for MBC/MIC: Table 2, Pseudomonas aeruginosa PAO1
[20] = assay type: physicochemical
Description: The six peptides were produced in the recombinant form by using a previously described strategy that exploit the frog protein onconase (ONC) as a carrier to drive the peptide to inclusion bodies. The fusion proteins were expressed in Escherichia coli strain BL21DE3, using the pET22b(+) vector and named: ONC-DCless-H6-(P)FIBα-GVV27, ONC-DCless-H6-(P)FIBα-SFR22, ONC-DCless-H6-(P)FIBβ-GVV28, ONC-DCless-H6-(P)FIBβ-NWK23, ONC-DCless-H6-(P)FIBγ-GII30, ONC-DCless-H6-(P)FIBγ-TWK25 (nucleotide and amino acid sequences are reported in Supplementary Figure S1). […] Peptides were released by hydrolysis of an acidic labile “Asp-Pro” sequence leading to recombinant peptides endowed with an additional Pro residue at the N-terminus. Thus, the recombinant forms of these peptides are herein named (P)FIBα-GVV27, (P)FIBα-SFR22, (P)FIBβ-GVV28, (P)FIBβ-NWK23, (P)FIBγ-GII30, (P)FIBγ-TWK25. Hydrolysis efficiencies of 95% were estimated for all the recombinant proteins (Supplementary Figure S3). To purify the recombinant peptides from the hydrolysis mixtures, the carrier and the uncleaved fusion protein were selectively precipitated by increasing the pH to 7 exploiting the fact that ONC is insoluble at pH higher than 5, whereas most AMPs are soluble also at neutral pH. […] Therefore, purification of (P)FIBα-SFR22, (P)FIBα-GVV27, (P)FIBβ-NWK23 and (P)FIBγ-TWK25 was first performed by selective precipitation, to remove the carrier and the uncleaved fusion protein, followed by Reverse Phase High-Performance Liquid Chromatography (RP-HPLC) on a C18 column, whereas purification of (P)FIBβ-GVV28 and (P)FIBγ-GII30 was performed directly by RP-HPLC omitting the selective precipitation step. Final yields of all recombinant peptides ranged from approximately 6 to 12 mg per liter of LB culture. Peptide purity, as determined by RP-HPLC, typically varied between 95% and 99% (Supplementary Figure S4).
Peptides (P)FIBα-GVV27, (P)FIBα-SFR22, (P)FIBβ-NWK23 and (P)FIBγ-TWK25 were separated from the carrier and the uncleaved fusion proteins as previously described. The hydrolysis mixture was neutralized to pH 7–7.2 by adding 1 M NH3 and incubated for 1 h at 25 °C under nitrogen atmosphere in a water bath. […] Supernatant and insoluble fraction were analyzed by SDS-PAGE. Concentration of the peptide into the soluble fraction was determined by spectrophotometric analyses using extinction coefficients (Supplementary Table S1) calculated by the ProtParam tool. After the selective precipitation step, purification of the peptide was performed by RP-HPLC. The linear gradients used are listed in Supplementary Table S2. Purification of (P)FIBβ-GVV28 and (P)FIBγ-GII30 was performed directly by RP-HPLC, omitting the selective precipitation step. Purified peptides were lyophilized and dissolved in deionized water. Samples were stored at −80 °C under nitrogen atmosphere. Purity of peptides was evaluated by RP-HPLC on Europa Protein 300 C18 column (5 μm, 25 × 1) using the linear gradients listed in Supplementary Table S2. The identity of the peptides was confirmed by mass spectrometry.

[21] = tested on: Sheep Red Blood Cells; assay: Hemolysis assay; settings: read-out: IC50 (concentration required to induce 50% hemolysis), peptide 0.78–100 µM, 37 °C, absorbance 405 nm, 1% SDS positive control, triplicate
Description: (§1) To assess the safety profile of the FIB-derived peptides, their hemolytic activity was evaluated by measuring the release of hemoglobin from sheep red blood cells after 1-h incubation with increasing peptide concentrations.
(§2) Briefly, Sheep Red Blood Cells were diluted in PBS 1× to reach a final concentration of 2%. Aliquots of diluted erythrocytes (100 μL) were added to each peptide solution (0–100 μM; 100 μL) in 96-well microtiter plates, and the mixture was incubated for 30 min under shaking (3000 rpm) at 37 °C. Following the incubation, a 3 min centrifugation at 4 °C was performed, and 50 µL of the supernatant from each sample were transferred to a 96 well plate. […] Hemolysis percentage was calculated by comparing samples to controls containing PBS (negative control) and 1% SDS (v/v) in PBS solution (positive control, inducing complete lysis). Hemolysis%=(Abs405 nm peptide−Abs405 nm negative control)/(Abs405 nm positive control−Abs405 nm negative control)×100.

[22] = tested on: Sheep Red Blood Cells
Description: as §1, §2

[23] = Table 1, control antibiotic, twofold dilutions from 64 µg/mL
[24] = Table 1, broth microdilution, Nutrient Broth 0.5×, overnight 37 °C, minimum of three independent experiments
[25] = Table 1, broth microdilution, Nutrient Broth 0.5×, ~5 × 10^5 CFU/mL, overnight 37 °C, minimum of three independent experiments
[26] = peptide 1 h before infection or 1 h after infection

| Compound | MBC/MIC [3] | MIC RP73 ([6]; RP73 (clinical isolate)) | MIC S. typ. [7] | MIC PA14 [8, 24] | MIC S. aur. [2] | MIC A. bau. [9, 24] | MIC S. ent. [10] | MIC K. pne. [11] | MIC E. fae. [4, 24] | MIC PAO1 [12] | MIC E. coli [13, 25] | SYTO 9 / PI signal, detachment assay [15] | MIC PA14 ([8]; PA14) | fluorescence signal of SYTO 9 (live cells), attachment assay [16] | MIC A. bau. ([9]; ATCC 17878) | MBC [3] | antiviral activity against HCoV-229E [17] | MBC [19] | MBC/MIC [19] | solubility / aggregation at pH 7 [20] | further results |
| --- | --- | --- | --- | --- | --- | --- | --- | --- | --- | --- | --- | --- | --- | --- | --- | --- | --- | --- | --- | --- | --- |
| CN[C@H](CC(C)C)C(=O)N[C@H]1C(=O)N[C@@H](CC(N)=O)C(=O)N[C@H]2C(=O)N[C@H]3C(=O)N[C@H](C(=O)N[C@H](C(=O)O)c4cc(O)cc(O)c4-c4cc3ccc4O)[C@H](O)c3ccc(c(Cl)c3)Oc3cc2cc(c3O[C@@H]2O[C@H](CO)[C@@H](O)[C@H](O)[C@H]2O[C@H]2C[C@](C)(N)[C@H](O)[C@H](C)O2)Oc2ccc(cc2Cl)[C@H]1O [Vancomycin, reference compound] | 1 |  |  |  |  |  |  |  |  |  |  |  |  |  |  |  |  |  |  |  | MIC [1]: 0.5 µg/mL (≈ 0.345 µM); MIC S. aur. (antibiotics) [2, 23]: 0.5 µg/mL (≈ 0.345 µM); MIC E. fae. (antibiotics) [4, 23]: 2 µg/mL (≈ 1.38 µM); MBC [5]: 0.5 µg/mL (≈ 0.345 µM) |
| GIIWATWKTRWYSMKKTTMKIIPFNRLTIG [FIBγ-GII30] |  | 3.12 µM | 6.25 µM | 6.25 µM | 6.25 µM | 6.25 µM | 12.5 µM | 12.5 µM | 6.25 µM | 6.25 µM | 6.25 µM |  |  |  |  |  |  |  |  |  | FICI of peptide/tobramycin combinations [14]: 0.5–0.53 |
| H-PGVVWMNWKGSWYSMRKMSMKIRPFFPQQ [(P)FIBβ-GVV28] | 1 | 6.25 µM | 12.5 µM |  | 3.12 µM |  |  | 25 µM |  | 6.25 µM |  | significantly reducing the SYTO 9 signal | 6.25 µM | significantly reduced | 6.25 µM | 3.12 µM | strong antiviral activity | 6.25 µM | 1 | particularly prone to aggregation and precipitation | antiviral activity against HCoV-229E in cell pre-treatment and post-infection treatment [17, 26]: appreciable antiviral activity; antiviral activity against HSV-1 in cell pre-treatment and post-infection treatment [18, 26]: appreciable antiviral activity; MIC S. ent. [10, 24]: 12.5 µM; MIC E. fae. ([4]; ATCC 29212): 6.25 µM; MIC E. coli ([13]; ATCC 25922): 6.25 µM |
| H-PSFRGADYSLRAVRMKIRPLVTQ [(P)FIBα-SFR22] | 1 | 6.25 µM | 25 µM |  | 12.5 µM |  | >50 µM | >50 µM |  | 12.5 µM |  |  | 12.5 µM | did not cause any reduction | 25 µM | 12.5 µM |  | 12.5 µM | 1 | soluble at pH 7 | IC50 [21]: > 100 µM; release of hemoglobin at 100 µM [22]: limited release of hemoglobin; antiviral activity against HSV-1 ([18]; co-treatment assay, from 50 μM peptide): no significant effect; MIC E. fae. ([4]; ATCC 29212): 6.25 µM; MIC E. coli ([13]; ATCC 25922): 25 µM |
| H-PTWKTRWYSMKKTTMKIIPFNRLTIG [(P)FIBγ-TWK25] | 1 |  | 3.12 µM | 3.12 µM | 1.56 µM | 3.12 µM |  | 6.25 µM | 3.12 µM | 3.12 µM | 3.12 µM | significantly reducing the SYTO 9 signal |  | significantly reduced |  | 1.56 µM | absence of efficacy | 3.12 µM | 1 | soluble at pH 7 | MIC RP73 [6, 24]: 3.12 µM; IC50 [21]: ~100 µM; release of hemoglobin at 100 µM [22]: limited release of hemoglobin; MIC S. ent. [10, 24]: 3.12 µM |
